Test system: breitblättrigew unerwünschte Pflanzen
Assay: Greenhouse herbicide test, pre- and post-emergence treatment
Type: in vivo
Details: 2,0 kg/ha a.S., Nachauflaufverfahren bzw. Vorauflaufverfahren, 2 bis 4 Wochen
From the text: Die herbizide Wirkfung der (3-Chlor-2-methylphenylethylamine der Formel I ließ sich durch Gewächshausversuche zeigen: Zur Aufzucht der Testpflanzen dienten Plastikblumentöpfe mit 300 cm³ Inhalt und lehmigem Sand mit etwa 3 % Humus als Substrat. Die Samen der Testpflanzen wurden nach Arten getrennt flach eingesät.
Bei Vorauflaufbehandlung wurden die aufbereiteten Wirkstoffe unmittelbar danach auf die Erdoberfläche aufgebracht. Sie wurden hierbei in Wasser als Verteilungsmittel suspendiert oder emulgiert und mittels fein verteilender Düsen gespritzt. Nach dem Aufbringen der Mittel wurden die Gefäße leicht beregnet, um Keimung und Wachstum in Gang zu bringen. Danach wurden die Gefäße mit durchsichtigen Plastikhauben abgedeckt, bis die Pflanzen angewaschsen waren. Diese Abdeckung fördert ein gleichmäßiges Keimen der Testpflanzen, sofern dies nicht durch die Wirkstoffe beeinträchtigt wird. Die Aufwandmengen betrugen 2,0 kg/ha.
Zum Zwecke der Nachauflaufbehandlung wurden die Testpflanzen je nach Wuchsform erst bis zu einer Wuchshöhe von 3 bis 15 cm angezüchtet und erst dann behandelt. Die Testpflanzen wurden dafür entweder direkt gesät und in den gleichen Gefäßen aufgezogen oder sie wurden als Keimpflanzen getrennt gezüchtet und einige Tage vor der Behandlung in die Versuchsgefäße verpflanzt. Die Aufwandmengen für die Nachauflaufbehandlung betrugen 2,0 kg Wirkstoff/ha. […]

SMILES: Cc1c(Cl)cccc1CCNC(=O)c1ccccc1 [Beispiel 3, N-Benzoyl-3-chlor-2-methylphenethylamin]
- herbizide Wirkung (Bekämpfung breitblättriger unerwünschter Pflanzen): sehr gut

Source: patent EP0340709A1, “(3-Chloro-methyl phenyl)ethyl amines, processes for their production and their use” (BASF Aktiengesellschaft, priority 1988, dated 1989)
